Results: patent US12281122B1, “PI3K inhibitors” (Cogent Biosciences, Inc., priority 2023, dated 2025)

Key:
[1] = tested on: T47D (PI3Kα-H1047R) cell line; assay: HTRF phospho-AKT(S473) cell assay in T47D cells; type: cell-based, human; conditions: Homo sapiens, 2 hours compound incubation
In short: (§1)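 T47D (PI3Kα-H1047R; RPMI, 10% FBS, insulin) and SKBR3 (wild-type PI3Kα; McCoy's 5A, 10% FBS) cells treated 2 h at 37 °C with 12-point 1:3 dilutions, top 5 μM and 10 μM respectively, ≤0.5% DMSO. SKBR3 stimulated with 70 ng/ml PDGF-BB for the last 15 min; lysate pAKT(S473) by HTRF, IC50 from curves.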

[2] = tested on: SKBR3 (PI3Kα-Wild Type) cell line; assay: HTRF phospho-AKT(S473) cell assay in SKBR3 cells; type: cell-based, human; conditions: Homo sapiens, SK-BR-3, 2 hours compound incubation, PDGF-BB stimulated
In short: as §1

[3] = HTRF phospho-AKT(S473), T47D (PI3Kα-H1047R) cells
[4] = HTRF phospho-AKT(S473), SKBR3 (PI3Kα-Wild Type) cells
[5] = T47D (PI3Kα-H1047R) cells, HTRF phospho-AKT(S473)
[6] = SKBR3 (PI3Kα-Wild Type) cells, HTRF phospho-AKT(S473)
[7] = T47D (PI3Kα-H1047R) cell line, phospho-AKT(S473) HTRF
[8] = SKBR3 (PI3Kα-Wild Type) cell line, phospho-AKT(S473) HTRF

SMILES | IC50 [1, 3] | IC50 [2, 4] | IC50 [1, 5] | IC50 [2, 6] | further results
Cc1cc([C@@H](C)Nc2ccc(Cl)nc2C(=O)NS(C)(=O)=O)c2nc(N3CCC(c4ccnn4C4CC4)CC3)n(C)c(=O)c2c1 [Compound 501, (R)-6-chloro-3-((1-(2-(4-(1-cyclopropyl-1H-pyrazol-5-yl)piperidin-1-yl)-3,6-dimethyl-4-oxo-3,4-dihydroquinazolin-8-yl)ethyl)amino)-N-(methylsulfonyl) picolinamide] | < 250 nM | 1000 to 5000 nM |  |  | 
Cc1cc([C@@H](C)Nc2ccc(Cl)nc2C(=O)NS(C)(=O)=O)c2nc(N3CCC(c4c(F)cnn4C)CC3)n(C)c(=O)c2c1 [Compound 412, (R)-6-chloro-3-((1-(2-(4-(4-fluoro-1-methyl-1H-pyrazol-5-yl)piperidin-1-yl)-3,6-dimethyl-4-oxo-3,4-dihydroquinazolin-8-yl)ethyl)amino)-N-(methylsulfonyl) picolinamide] |  |  | < 250 nM | 1000 to 5000 nM | 
Cc1cc([C@@H](C)Nc2ccc(Cl)nc2C(=O)NS(C)(=O)=O)c2nc(N3Cc4cccc(-c5ccnn5C)c4C3)n(C)c(=O)c2c1 [Compound 274, (R)-6-chloro-3-((1-(3,6-dimethyl-2-(4-(1-methyl-1H-pyrazol-5-yl)isoindolin-2-yl)-4-oxo-3,4-dihydroquinazolin-8-yl)ethyl)amino)-N-(methylsulfonyl) picolinamide] |  |  | < 250 nM | 1000 to 5000 nM | 
Cc1cc([C@@H](C)Nc2ccc(Cl)nc2C(=O)NS(C)(=O)=O)c2nc(N3CC[C@H](c4ccn(C)n4)CC3(C)C)n(C)c(=O)c2c1 (relative stereo) [Compound 323, 6-chloro-3-(((R)-1-(2-((R*)-2,2-dimethyl-4-(1-methyl-1H-pyrazol-3-yl)piperidin-1-yl)-3,6-dimethyl-4-oxo-3,4-dihydroquinazolin-8-yl)ethyl)amino)-N-(methylsulfonyl) picolinamide] |  |  | 250 to 500 nM | ≥ 5000 nM | 
Cc1cc([C@@H](C)Nc2ccc(Cl)nc2C(=O)NS(C)(=O)=O)c2nc(-c3ccc4nn(C)c(C)c4c3)n(C)c(=O)c2c1 [Compound 842, (R)-6-chloro-3-((1-(2-(2,3-dimethyl-2H-indazol-5-yl)-3,6-dimethyl-4-oxo-3,4-dihydroquinazolin-8-yl)ethyl)amino)-N-(methylsulfonyl) picolinamide] |  |  |  |  | IC50 [1, 7]: < 250 nM; IC50 [2, 8]: 1000 to 5000 nM
Cc1cc([C@@H](C)Nc2ccc(Cl)nc2C(=O)NS(C)(=O)=O)c2nc(N3CCC(C)(c4ccnn4C)CC3)n(C)c(=O)c2c1 [Compound 302, (R)-6-chloro-3-((1-(3,6-dimethyl-2-(4-methyl-4-(1-methyl-1H-pyrazol-5-yl)piperidin-1-yl)-4-oxo-3,4-dihydroquinazolin-8-yl)ethyl)amino)-N-(methylsulfonyl) picolinamide] |  |  | < 250 nM | 1000 to 5000 nM | 
Cc1cc([C@@H](C)Nc2ccc(Cl)nc2C(=O)NS(C)(=O)=O)c2nc(N3C[C@H]4C[C@@H]3C[C@H]4c3ccn(C)n3)n(C)c(=O)c2c1 (relative stereo) [Compound 355, 6-chloro-3-(((R)-1-(3,6-dimethyl-2-((1R*,4S*,5R*)-5-(1-methyl-1H-pyrazol-3-yl)-2-azabicyclo[2.2.1]heptan-2-yl)-4-oxo-3,4-dihydroquinazolin-8-yl)ethyl)amino)-N-(methylsulfonyl) picolinamide] |  |  | < 250 nM | 1000 to 5000 nM | 
COc1cn(C)nc1C1CCN(c2nc3c([C@@H](C)Nc4ccc(Cl)nc4C(=O)NS(C)(=O)=O)cc(C)cc3c(=O)n2C)CC1 [Compound 316, (R)-6-chloro-3-((1-(2-(4-(4-methoxy-1-methyl-1H-pyrazol-3-yl)piperidin-1-yl)-3,6-dimethyl-4-oxo-3,4-dihydroquinazolin-8-yl)ethyl)amino)-N-(methylsulfonyl) picolinamide] |  |  | 250 to 500 nM | 1000 to 5000 nM | 
Cc1cc2c(=O)n(C)c(-c3ccc4nn(C)cc4c3)nc2c([C@@H](C)Nc2ccc(Cl)nc2C(=O)NS(C)(=O)=O)n1 [Compound 840, (R)-6-chloro-3-((1-(3,6-dimethyl-2-(2-methyl-2H-indazol-5-yl)-4-oxo-3,4-dihydropyrido[3,4-d]pyrimidin-8-yl)ethyl)amino)-N-(methylsulfonyl) picolinamide] |  |  |  |  | IC50 [1, 7]: 1000 to 5000 nM; IC50 [2, 8]: 1000 to 5000 nM
Cc1cc([C@@H](C)Nc2ccc(Cl)nc2C(=O)NS(C)(=O)=O)c2nc(C3CCN(c4ccn(C)n4)CC3)n(C)c(=O)c2c1 [Compound 223, (R)-6-chloro-3-((1-(3,6-dimethyl-2-(1-(1-methyl-1H-pyrazol-3-yl)piperidin-4-yl)-4-oxo-3,4-dihydroquinazolin-8-yl)ethyl)amino)-N-(methylsulfonyl) picolinamide] |  |  | < 250 nM | 1000 to 5000 nM | 
Cc1cc([C@@H](C)Nc2ccc(Cl)nc2C(=O)NS(C)(=O)=O)c2nc(N3CCC(c4nn(C(F)F)cc4F)CC3)n(C)c(=O)c2c1 [Compound 463, (R)-6-chloro-3-((1-(2-(4-(1-(difluoromethyl)-4-fluoro-1H-pyrazol-3-yl)piperidin-1-yl)-3,6-dimethyl-4-oxo-3,4-dihydroquinazolin-8-yl)ethyl)amino)-N-(methylsulfonyl) picolinamide] | 250 to 500 nM | ≥ 5000 nM |  |  | 
Cc1cc([C@@H](C)Nc2ccc(Cl)nc2C(=O)NS(C)(=O)=O)c2nc(N3CCC(c4ccn(C(F)(F)F)n4)CC3)n(C)c(=O)c2c1 [Compound 445, (R)-6-chloro-3-((1-(3,6-dimethyl-4-oxo-2-(4-(1-(trifluoromethyl)-1H-pyrazol-3-yl)piperidin-1-yl)-3,4-dihydroquinazolin-8-yl)ethyl)amino)-N-(methylsulfonyl) picolinamide] | 250 to 500 nM | ≥ 5000 nM |  |  | 
Cc1cc([C@@H](C)Nc2ccc(Cl)nc2C(=O)NS(C)(=O)=O)c2nc(N3C[C@@H]4C[C@H]3CN4c3cnn(C)c3)n(C)c(=O)c2c1 [Compound 201, 6-chloro-3-(((R)-1-(3,6-dimethyl-2-((1S,4S)-5-(1-methyl-1H-pyrazol-4-yl)-2,5-diazabicyclo[2.2.1]heptan-2-yl)-4-oxo-3,4-dihydroquinazolin-8-yl)ethyl)amino)-N-(methylsulfonyl) picolinamide] |  |  | < 250 nM | 1000 to 5000 nM | 

Continued, in another order:

IC50 [1, 3] | IC50 [2, 4] | IC50 [1, 5] | IC50 [2, 6] | SMILES | further results
250 to 500 nM | ≥ 5000 nM |  |  | Cc1cc([C@@H](C)Nc2ccc(Cl)nc2C(=O)NS(C)(=O)=O)c2nc(N3C[C@@H]4[C@H](C3)[C@H]4c3cnc(C)nc3)n(C3CC3)c(=O)c2c1 [Compound 606, 6-chloro-3-(((R)-1-(3-cyclopropyl-6-methyl-2-((1R,5S,6S)-6-(2-methylpyrimidin-5-yl)-3-azabicyclo[3.1.0]hexan-3-yl)-4-oxo-3,4-dihydroquinazolin-8-yl)ethyl)amino)-N-(methylsulfonyl) picolinamide] | 
250 to 500 nM | ≥ 5000 nM |  |  | Cc1cc([C@@H](C)Nc2ccc(Cl)nc2C(=O)NS(C)(=O)=O)c2nc([C@H]3[C@@H]4CN(c5ccc(C)nc5)C[C@@H]43)n(C)c(=O)c2c1 [Compound 829, 6-chloro-3-(((R)-1-(3,6-dimethyl-2-((1R,5S,6r)-3-(6-methylpyridin-3-yl)-3-azabicyclo[3.1.0]hexan-6-yl)-4-oxo-3,4-dihydroquinazolin-8-yl)ethyl)amino)-N-(methylsulfonyl) picolinamide] | 
250 to 500 nM | ≥ 5000 nM |  |  | Cc1cc([C@@H](C)Nc2ccc(Cl)nc2C(=O)NS(C)(=O)=O)c2nc(N3C[C@H]4C[C@@H]3CN4c3nc(C)ncc3F)n(C)c(=O)c2c1 [Compound 605, 6-chloro-3-(((R)-1-(2-((1R,4R)-5-(5-fluoro-2-methylpyrimidin-4-yl)-2,5-diazabicyclo [2.2.1]heptan-2-yl)-3,6-dimethyl-4-oxo-3,4-dihydroquinazolin-8-yl)ethyl)amino)-N-(methylsulfonyl) picolinamide] | 
250 to 500 nM | 1000 to 5000 nM |  |  | Cc1cc([C@@H](C)Nc2ccc(Cl)nc2C(=O)NS(C)(=O)=O)c2nc(N3CCn4ncc(F)c4C3)n(C)c(=O)c2c1 [Compound 711, (R)-6-chloro-3-((1-(2-(3-fluoro-6,7-dihydropyrazolo[1,5-a]pyrazin-5(4H)-yl)-3,6-dimethyl-4-oxo-3,4-dihydroquinazolin-8-yl)ethyl)amino)-N-(methylsulfonyl) picolinamide] | 
< 250 nM | 1000 to 5000 nM |  |  | [2H]C([2H])([2H])n1ncc2cc(-c3nc4c([C@@H](C)Nc5ccc(Cl)nc5C(=O)NS(C)(=O)=O)cc(C)cc4c(=O)n3C)ccc21 [Compound 818, (R)-6-chloro-3-((1-(3,6-dimethyl-2-(1-(methyl-d3)-1H-indazol-5-yl)-4-oxo-3,4-dihydroquinazolin-8-yl)ethyl)amino)-N-(methylsulfonyl) picolinamide] | 
< 250 nM | 1000 to 5000 nM |  |  | Cc1cc([C@@H](C)Nc2ccc(Cl)nc2C(=O)NS(C)(=O)=O)c2nc(N3CCC(n4ncnc4C)CC3)n(C)c(=O)c2c1 [Compound 549, (R)-6-chloro-3-((1-(3,6-dimethyl-2-(4-(5-methyl-1H-1,2,4-triazol-1-yl)piperidin-1-yl)-4-oxo-3,4-dihydroquinazolin-8-yl)ethyl)amino)-N-(methylsulfonyl) picolinamide] | 
< 250 nM | 500 to 1000 nM |  |  | Cc1cc([C@@H](C)Nc2ccc(Cl)nc2C(=O)NS(C)(=O)=O)c2nc(-c3ccc4c(cnn4C)c3)n(C)c(=O)c2c1 [Compound 774, (R)-6-chloro-3-((1-(3,6-dimethyl-2-(1-methyl-1H-indazol-5-yl)-4-oxo-3,4-dihydroquinazolin-8-yl)ethyl)amino)-N-(methylsulfonyl) picolinamide] | 
